Data published in patent US4008220A, “Penicillins” (Sumitomo Chemical Company, Limited, priority 1972, dated 1977).
≈ marks a conversion by molar mass, not a printed value.

Experiments:
Proteus mirabilis GN2425 = test: Minimal inhibitory concentration by agar dilution method; format: cell-based
Proteus vulgaris HX19 = test: as above; format: cell-based
[1] = tested on: Pseudomonas aeruginosa 104; test: as above; format: cell-based
[2] = tested on: Klebsiella pneumoniae 602; test: as above; format: cell-based
Escherichia coli NIHJ = test: as above; format: cell-based
[3] = tested on: Staphylococcus aureus 209P; test: as above; format: cell-based
Pseudomonas = conditions: in words; cited from earlier work
[4] = tested on: various gram-positive and gram-negative bacteria; conditions: in words; cited from earlier work

Structure (SMILES)	MIC (Proteus mirabilis GN2425)	MIC (Proteus vulgaris HX19)	MIC [1]	MIC [2]	MIC (Escherichia coli NIHJ)	MIC [3]	antimicrobial activity against Pseudomonas (Pseudomonas)	growth inhibition / antimicrobial activity against gram-positive and gram-negative bacteria [4]
CC1(C)S[C@@H]2[C@H](NC(=O)[C@H](NC(=O)c3cnc4c(c3O)CCCC4)c3ccccc3)C(=O)N2[C@H]1C(=O)O [Example 3, D-α-(4-hydroxy-2,3-cyclohexenopyridine-5-carboxamido)-benzylpenicillin]	6.25 µg/mL (≈ 11.9 µM)	0.39 µg/mL (≈ 0.743 µM)	12.5 µg/mL (≈ 23.8 µM)	–	–	–	–	–
CC1(C)S[C@@H]2[C@H](NC(=O)[C@H](NC(=O)c3cnccc3O)C3=CCC=CC3)C(=O)N2[C@H]1C(=O)O [Example 11, D-α-(4-hydroxypyridine-3-carboxamido)-1,4-cyclohexadienylmethylpenicillin]	12.5 µg/mL (≈ 26.5 µM)	0.2 µg/mL (≈ 0.423 µM)	6.25 µg/mL (≈ 13.2 µM)	12.5 µg/mL (≈ 26.5 µM)	25 µg/mL (≈ 52.9 µM)	0.39 µg/mL (≈ 0.825 µM)	–	–
CC1(C)S[C@@H]2[C@H](NC(=O)[C@H](NC(=O)c3ccnnc3O)c3ccccc3)C(=O)N2[C@H]1C(=O)O [Example 8, D-α-(3-hydroxypyridazine-4-carboxamido)-benzylpenicillin]	6.25 µg/mL (≈ 13.3 µM)	–	–	–	–	–	–	–
CC1(C)S[C@@H]2[C@H](NC(=O)C(NC(=O)c3cnccc3O)c3cnsc3)C(=O)N2[C@H]1C(=O)O (stereo partly drawn) [Example 16]	12.5 µg/mL (≈ 26.2 µM)	0.2 µg/mL (≈ 0.419 µM)	6.25 µg/mL (≈ 13.1 µM)	25 µg/mL (≈ 52.4 µM)	25 µg/mL (≈ 52.4 µM)	0.78 µg/mL (≈ 1.63 µM)	–	–
CC1(C)S[C@@H]2[C@H](NC(=O)C(NC(=O)c3cccnc3)c3ccccc3)C(=O)N2[C@H]1C(=O)O (stereo partly drawn) [II, reference compound]	100 µg/mL (≈ 220 µM)	0.78 µg/mL (≈ 1.72 µM)	50 µg/mL (≈ 110 µM)	100 µg/mL (≈ 220 µM)	100 µg/mL (≈ 220 µM)	0.78 µg/mL (≈ 1.72 µM)	–	–
CC(=O)c1c(C)ncc(C(=O)N[C@@H](C(=O)N[C@@H]2C(=O)N3[C@@H]2SC(C)(C)[C@@H]3C(=O)O)c2ccccc2)c1O [Example 4, D-α-(3-acetyl-4-hydroxy-2-methyl-pyridine-5-carboxamido)-benzylpenicillin]	6.25 µg/mL (≈ 11.9 µM)	0.39 µg/mL (≈ 0.741 µM)	12.5 µg/mL (≈ 23.7 µM)	12.5 µg/mL (≈ 23.7 µM)	12.5 µg/mL (≈ 23.7 µM)	0.78 µg/mL (≈ 1.48 µM)	–	–
CC1(C)S[C@@H]2[C@H](NC(=O)C(NC(=O)c3ccnnc3O)c3cnsc3)C(=O)N2[C@H]1C(=O)O (stereo partly drawn) [Example 19]	6.25 µg/mL (≈ 13.1 µM)	0.05 µg/mL (≈ 0.104 µM)	6.25 µg/mL (≈ 13.1 µM)	25 µg/mL (≈ 52.2 µM)	12.5 µg/mL (≈ 26.1 µM)	0.39 µg/mL (≈ 0.815 µM)	–	–
CC1(C)S[C@@H]2C(NC(=O)C(N)c3ccccc3)C(=O)N2[C@H]1C(=O)O (stereo partly drawn) [Ampicillin, 6-(α-aminophenylacetamido)-penicillanic acid]	–	–	–	–	–	–	does not exert any appreciable antimicrobial activity against Pseudomonas	inhibits the growth of various gram-positive and gram-negativebacteria
CC1(C)S[C@@H]2[C@H](NC(=O)C(NC(=O)c3cncnc3O)c3ccsc3)C(=O)N2[C@H]1C(=O)O (stereo partly drawn) [Example 17]	6.25 µg/mL (≈ 13.1 µM)	0.05 µg/mL (≈ 0.105 µM)	3.13 µg/mL (≈ 6.55 µM)	50 µg/mL (≈ 105 µM)	25 µg/mL (≈ 52.4 µM)	0.39 µg/mL (≈ 0.817 µM)	–	–
CCOC(=O)Oc1c(C(=O)N[C@@H](C(=O)N[C@@H]2C(=O)N3[C@@H]2SC(C)(C)[C@@H]3C(=O)O)c2ccccc2)cnc2c1CCCC2 [Example 6, D-α -(4-ethoxycarbonyloxy-2,3-cyclohexenopyridine-5-carboxamido)-benzylpenicillin]	6.25 µg/mL (≈ 10.5 µM)	0.39 µg/mL (≈ 0.654 µM)	12.5 µg/mL (≈ 20.9 µM)	6.25 µg/mL (≈ 10.5 µM)	12.5 µg/mL (≈ 20.9 µM)	0.78 µg/mL (≈ 1.31 µM)	–	–
CC1(C)S[C@@H]2[C@H](NC(=O)C(NC(=O)c3cnc4c(c3O)CCCCC4)c3ccccc3)C(=O)N2[C@H]1C(=O)O (stereo partly drawn) [Example 20]	6.25 µg/mL (≈ 11.6 µM)	0.78 µg/mL (≈ 1.45 µM)	12.5 µg/mL (≈ 23.2 µM)	3.13 µg/mL (≈ 5.81 µM)	25 µg/mL (≈ 46.4 µM)	0.78 µg/mL (≈ 1.45 µM)	–	–
CCOC(=O)Oc1c(C(=O)N[C@@H](C(=O)N[C@@H]2C(=O)N3[C@@H]2SC(C)(C)[C@@H]3C(=O)O)c2ccccc2)cnc2c1CCC2 [Example 1, D-α-(4-ethoxycarbonyloxy-2,3-cyclopentenopyridine-5-carboxamido)-benzylpenicillin]	3.13 µg/mL (≈ 5.37 µM)	0.05 µg/mL (≈ 0.0858 µM)	6.25 µg/mL (≈ 10.7 µM)	6.25 µg/mL (≈ 10.7 µM)	12.5 µg/mL (≈ 21.5 µM)	0.39 µg/mL (≈ 0.669 µM)	–	–
CC1(C)S[C@@H]2[C@H](NC(=O)C(NC(=O)c3ccnnc3O)c3cccs3)C(=O)N2[C@H]1C(=O)O (stereo partly drawn) [Example 18]	6.25 µg/mL (≈ 13.1 µM)	0.05 µg/mL (≈ 0.105 µM)	3.13 µg/mL (≈ 6.55 µM)	12.5 µg/mL (≈ 26.2 µM)	12.5 µg/mL (≈ 26.2 µM)	0.39 µg/mL (≈ 0.817 µM)	–	–
CC1(C)S[C@@H]2[C@H](NC(=O)[C@H](NC(=O)c3cnc4c(c3O)CCC4)c3ccccc3)C(=O)N2[C@H]1C(=O)O [Example 2, D-α-(4-hydroxy-2,3-cyclopentenopyridine-5-carboxamido)-benzylpenicillin]	12.5 µg/mL (≈ 24.5 µM)	0.39 µg/mL (≈ 0.764 µM)	12.5 µg/mL (≈ 24.5 µM)	12.5 µg/mL (≈ 24.5 µM)	25 µg/mL (≈ 49 µM)	0.39 µg/mL (≈ 0.764 µM)	–	–
CCOC(=O)Oc1c(C(=O)NC(C(=O)N[C@@H]2C(=O)N3[C@@H]2SC(C)(C)[C@@H]3C(=O)O)c2ccccc2)cnc2c1CCCCC2 (stereo partly drawn) [Example 21]	6.25 µg/mL (≈ 10.2 µM)	0.78 µg/mL (≈ 1.28 µM)	25 µg/mL (≈ 40.9 µM)	3.13 µg/mL (≈ 5.13 µM)	25 µg/mL (≈ 40.9 µM)	0.78 µg/mL (≈ 1.28 µM)	–	–
CC1(C)S[C@@H]2[C@H](NC(=O)C(NC(=O)c3cnccc3O)c3ccccc3)C(=O)N2[C@H]1C(=O)O (stereo partly drawn) [Example 25]	12.5 µg/mL (≈ 26.6 µM)	0.2 µg/mL (≈ 0.425 µM)	6.23 µg/mL (≈ 13.2 µM)	25 µg/mL (≈ 53.1 µM)	–	0.78 µg/mL (≈ 1.66 µM)	–	–
Cc1ncc(C(=O)NC(C(=O)N[C@@H]2C(=O)N3[C@@H]2SC(C)(C)[C@@H]3C(=O)O)c2ccccc2)c(O)c1C(C)O (stereo partly drawn) [Example 22]	12.5 µg/mL (≈ 23.6 µM)	0.39 µg/mL (≈ 0.738 µM)	6.25 µg/mL (≈ 11.8 µM)	12.5 µg/mL (≈ 23.6 µM)	25 µg/mL (≈ 47.3 µM)	0.78 µg/mL (≈ 1.48 µM)	–	–
CC(C)(C)C(=O)Oc1c(C(=O)N[C@@H](C(=O)N[C@@H]2C(=O)N3[C@@H]2SC(C)(C)[C@@H]3C(=O)O)c2ccccc2)cnc2c1CCCC2 [Example 5, D-α-(2,3-cyclohexeno-4-pivaloyloxypyridine-5-carboxamido)-benzylpenicillin]	6.25 µg/mL (≈ 10.3 µM)	0.39 µg/mL (≈ 0.641 µM)	12.5 µg/mL (≈ 20.5 µM)	6.25 µg/mL (≈ 10.3 µM)	12.5 µg/mL (≈ 20.5 µM)	0.78 µg/mL (≈ 1.28 µM)	–	–
CC1(C)S[C@@H]2[C@H](NC(=O)[C@H](NC(=O)c3cccnc3O)c3ccc(O)cc3)C(=O)N2[C@H]1C(=O)O [Example 10, D-α-(2-hydroxypyridine-3-carboxamido)-p-hydroxybenzylpenicillin]	12.5 µg/mL (≈ 25.7 µM)	0.2 µg/mL (≈ 0.411 µM)	6.25 µg/mL (≈ 12.8 µM)	100 µg/mL (≈ 206 µM)	12.5 µg/mL (≈ 25.7 µM)	1.56 µg/mL (≈ 3.21 µM)	–	–
CC1(C)S[C@@H]2[C@H](NC(=O)C(NC(=O)c3ccccn3)c3ccccc3)C(=O)N2[C@H]1C(=O)O (stereo partly drawn) [I, reference compound]	50 µg/mL (≈ 110 µM)	–	–	–	–	–	–	–
CC(C)CC(NC(=O)c1ccnnc1O)C(=O)N[C@@H]1C(=O)N2[C@@H]1SC(C)(C)[C@@H]2C(=O)O (stereo partly drawn) [Example 13]	25 µg/mL (≈ 55.4 µM)	0.39 µg/mL (≈ 0.864 µM)	12.5 µg/mL (≈ 27.7 µM)	25 µg/mL (≈ 55.4 µM)	12.5 µg/mL (≈ 27.7 µM)	0.39 µg/mL (≈ 0.864 µM)	–	–
CC1(C)S[C@@H]2[C@H](NC(=O)[C@H](NC(=O)c3cnccc3O)c3ccc(O)cc3)C(=O)N2[C@H]1C(=O)O [Example 9, D-α-(4-hydroxypyridine-3-carboxamido)-p-hydroxybenzylpenicillin]	6.25 µg/mL (≈ 12.8 µM)	–	–	100 µg/mL (≈ 206 µM)	–	0.78 µg/mL (≈ 1.6 µM)	–	–
CC1(C)S[C@@H]2[C@H](NC(=O)C(NC(=O)c3ccnnc3O)C3=CCC=CC3)C(=O)N2[C@H]1C(=O)O (stereo partly drawn) [Example 12]	12.5 µg/mL (≈ 26.4 µM)	0.05 µg/mL (≈ 0.106 µM)	3.13 µg/mL (≈ 6.61 µM)	3.13 µg/mL (≈ 6.61 µM)	12.5 µg/mL (≈ 26.4 µM)	0.2 µg/mL (≈ 0.422 µM)	–	–
Cc1cc(C(=O)NC(C(=O)N[C@@H]2C(=O)N3[C@@H]2SC(C)(C)[C@@H]3C(=O)O)c2ccccc2)c(O)nn1 (stereo partly drawn) [Example 24]	50 µg/mL (≈ 103 µM)	0.39 µg/mL (≈ 0.803 µM)	3.13 µg/mL (≈ 6.45 µM)	25 µg/mL (≈ 51.5 µM)	12.5 µg/mL (≈ 25.7 µM)	0.39 µg/mL (≈ 0.803 µM)	–	–
CC1(C)S[C@@H]2[C@H](NC(=O)C(NC(=O)c3ccnnc3O)c3ccsc3)C(=O)N2[C@H]1C(=O)O (stereo partly drawn) [Example 15]	6.25 µg/mL (≈ 13.1 µM)	0.05 µg/mL (≈ 0.105 µM)	3.13 µg/mL (≈ 6.55 µM)	12.5 µg/mL (≈ 26.2 µM)	12.5 µg/mL (≈ 26.2 µM)	0.39 µg/mL (≈ 0.817 µM)	–	–
CSc1ncc(C(=O)NC(C(=O)N[C@@H]2C(=O)N3[C@@H]2SC(C)(C)[C@@H]3C(=O)O)c2ccccc2)c(O)n1 (stereo partly drawn) [Example 27]	12.5 µg/mL (≈ 24.2 µM)	0.1 µg/mL (≈ 0.193 µM)	6.25 µg/mL (≈ 12.1 µM)	50 µg/mL (≈ 96.6 µM)	50 µg/mL (≈ 96.6 µM)	0.78 µg/mL (≈ 1.51 µM)	–	–
